In patent US7897596B2, “Allosteric modulators of the A1 adenosine receptor” (King Pharmaceuticals Research & Development, Inc., priority 2006, dated 2011):

Biological target: T1, human A1 adenosine receptors (Homo sapiens, UniProt P30542)
T1 construct: expressed in transfected cells; host or cells: CHO cells (hCHO-A1 clone)
T1 sequence (P30542 1-326): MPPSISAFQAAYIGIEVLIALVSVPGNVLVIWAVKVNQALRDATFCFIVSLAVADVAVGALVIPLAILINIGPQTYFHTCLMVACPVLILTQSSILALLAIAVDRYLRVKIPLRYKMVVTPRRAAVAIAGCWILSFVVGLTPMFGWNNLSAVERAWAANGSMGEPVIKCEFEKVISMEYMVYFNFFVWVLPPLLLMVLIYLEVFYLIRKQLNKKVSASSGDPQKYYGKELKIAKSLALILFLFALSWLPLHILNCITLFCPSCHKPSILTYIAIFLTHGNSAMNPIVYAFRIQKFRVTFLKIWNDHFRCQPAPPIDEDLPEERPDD
Experiment: Saturation binding of [3H]CCPA to hCHO-A1
Protocol: The hCHO-A1, hCHO-A2A and hCHO-A3 cell clones are grown adherently and maintained in Dulbecco's modified Eagle's medium with nutrient mixture F12, containing 10% fetal calf serum, penicillin (100 U/mL), streptomycin (100 μg/mL), L-glutamine (2 mM), geneticine (G418, 0.2 mg/mL) at 37° C. in 5% CO2/95% air (Klotz et al. Naunyn-Schmied. Arch Pharm. 1998, 357, 1-9). Cells are split two or three times weekly at a ratio of between 1:5 and 1:10. For membrane preparation the culture medium is removed. The cells are washed with PBS and scraped off T75 flasks in ice-cold hypotonic buffer (5 mM Tris HCl, 2 mM EDTA, pH 7.4). The cell suspension is homogenized with Polytron and the homogenate is spun for 10 min at 1,000×g. […] The protein concentration is determined according to a Bio-Rad method (Bradford, 1976) with bovine albumin as a standard reference.
To determine the effect of the compounds of the present invention on the binding to A1, A2A and A3 receptors, membranes from hCHO-A1, hCHO-A2A, hCHO-A3 are incubated in a buffer solution in the absence and in the presence of the examined compounds. […] Bound and free radioactivity are separated by filtering the assay mixture through Whatman GF/B glass fibre filters using a Micro-mate 196 cell harvester (Packard Instrument Company). The filter bound radioactivity was counted on Top Count Microplate Scintillation Counter (efficacy […]) with Micro 20. […]

increase in the BMAX value of the agonist [3H]CCPA: about 6 fold
Compound: Nc1scc(CN2CCC3(CC2)Oc2cccc(F)c2O3)c1C(=O)c1ccc(Cl)cc1 [Example 60, {2-Amino-4-(4-fluorospiro[benzo[d][1,3]-dioxole-2,4′-piperidine]-1′-ylmethyl)thiophen-3-yl}(4-chlorophenyl)methanone]
